From patent US9090655B2, “Low hemolytic antimicrobial peptide, pharmaceutical composition and use thereof” (priority 2010, dated 2015)
Where two headings read alike, the source gives them in different places. Where no end group is shown, it is not given here.

How the values were obtained:
Assay type in all cases: cell-based
[1] = test system: human red blood cells (hRBC); experiment: Hemolytic assay; conditions: for lysis percentage: hRBC 5% v/v, one hour at 37° C.
Method: Melittin, Pem-2252 L and Pem-2254 L were tested for hemolysis against human red blood cells (hRBC). […] The hRBCs with EDTA were rinsed 3 times with PBS (800×g, 10 min) and re-suspended in PBS. The hRBCs were diluted into 10% with phosphate-buffered saline and placed 50 μl into each eppendorf. The peptides dissolved in PBS were then added to 50 μl of 10% solution of hRBCs and incubated for an hour at 37° C. (final hRBC concentration, 5% v/v). The samples were centrifuged at 800 g for 10 min […]. Various concentrations of peptides were incubated with pretreated hRBC and the percentage of hemolysis determined (Percentage lysis, Zero hemolysis (blank) and 100% hemolysis were determined in PBS buffer and 1% Triton X-100). […] At 5 μg/ml, 50 μg/ml and 400 μg/ml, its lysis percentages were 0.45%, 1.52% and 16.35%, respectively.

[2] = test system: outer membrane of E. coli; experiment: Outer membrane permeabilization, NPN uptake assay; conditions: intact E. coli cells, NPN fluorescence
Method: The outer membrane permeabilization activity of the peptide variants was determined by the 1-N-phenylnaphthylamine (NPN) uptake assay, using intact cells of E. coli. […] Since NPN is hydrophobic, it provides a direct measurement of the degree of outer membrane permeability. E. coli take up little or no NPN in a general condition. […] Fluorescence would vary with the concentration of peptide. The steps of the embodiment were described as follow. One ml of overnight culture was used to inoculate 50 ml of media and incubated at 37° C. with shaking. The culture was permitted to grow to an OD600 of 0.4 to 0.6, cells were spun down at 3500 rpm for 10 minutes, washed, and re-suspended in buffer to an OD600 of 0.5. The OD600 was recorded, 1 ml of cells (OD600=0.5) was added to the cuvette and measured after 2-5 seconds. 20 μl NPN 0.5 mM, shaken to mix, was added and measured after 2-5 seconds. 10 ul antibiotic 100× desired final concentration was added, shaken to mix, and measured until the maximal value was reached within 1 to 5 minutes. The concentration of peptide leading to 50% of the maximum increase in NPN uptake was recorded as the P50. As results shown in table 4, all of the peptides were capable of interacting with membrane.

[3] = test system: Pseudomonas aeruginosa (ATCC 27853)
Method: (§1) The in vitro antimicrobial activities of antimicrobial agents were tested using minimum inhibition concentration (MIC) tests. The MIC value is the lowest concentration of peptide at which the visible growth of test organisms was inhibited and reduced. The test strains herein were E. coli (ATCC 25922), Pseudomonas aeruginosa (ATCC 27853) and Staphylococcus aureus (ATCC 29213).
(§2) Overnight cultures of the test organisms were diluted to produce an inoculum containing approximately 10^5 colonies in Meuller-Hinton broth (MHB). Peptide solution with different concentrations was added to diluted culture of the test organisms. After 18 hours of incubation at 37° C., the results were assayed for turbidity as an indicator of cell growth. MIC values for the peptides were measured three times at different time points. […] On the other hand, modifications for primary or secondary structures without influencing their activity, such as acetylation, amidation, formylation, hydroxylation, lipid modification, methylation or phosphorylation, were performed herein.

E. coli (ATCC 25922) = test system: E. coli (ATCC 25922)
Method: as §1, §2

[4] = test system: Staphylococcus aureus (ATCC 29213)
Method: as §1, §2

Bacillus pumilus = test system: Bacillus pumilus
Description: (§3) The MIC values against various strains are shown in table 3, Pem-2251 L and Pem-2254 L have great microbial activity as well.

Staphylococcus aureus = test system: Staphylococcus aureus
Description: as §3

Bacillus substilis = test system: Bacillus substilis
Description: as §3

[5] = test system: Staphylococcus epidermidis
Description: as §3

Bacillus cereus = test system: Bacillus cereus
Description: as §3

E. coli = test system: E. coli
Description: as §3

Pseudomonas aeruginosa = test system: Pseudomonas aeruginosa
Description: as §3

[6] = P. aeruginosa ATCC 27853, MHB, 18 hours at 37° C., mean of three
[7] = E. coli ATCC 25922, MHB, 18 hours at 37° C., mean of three
[8] = S. aureus ATCC 29213, MHB, 18 hours at 37° C., mean of three

Compound	MIC ([3]; ATCC 27853, 18 h) [µg/mL]	MIC (E. coli (ATCC 25922); ATCC 25922, 18 h) [µg/mL]	MIC ([4]; ATCC 29213, 18 h) [µg/mL]	MIC [3, 6] [µg/mL]	MIC (E. coli (ATCC 25922); [7]) [µg/mL]	MIC [4, 8] [µg/mL]	also measured
CC[C@H](C)[C@H](NC(=O)CN)C(=O)NCC(=O)N[C@@H](C)C(=O)N[C@H](C(=O)N[C@@H](CC(C)C)C(=O)N[C@@H](CCCCN)C(=O)N[C@H](C(=O)N[C@@H](CC(C)C)C(=O)N[C@H](C(=O)N[C@H](C(=O)NCC(=O)N[C@@H](CC(C)C)C(=O)N1CCC[C@H]1C(=O)N[C@@H](C)C(=O)N[C@@H](CC(C)C)C(=O)N[C@H](C(=O)N[C@@H](CO)C(=O)N[C@@H](Cc1c[nH]c2ccccc12)C(=O)N[C@H](C(=O)N[C@@H](CCCCN)C(=O)N[C@@H](CCCNC(=N)N)C(=O)N[C@@H](CCCCN)C(=O)N[C@@H](CCCNC(=N)N)C(=O)N[C@@H](CCC(N)=O)C(=O)N[C@@H](CCC(N)=O)C(N)=O)[C@@H](C)CC)[C@@H](C)CC)[C@@H](C)O)[C@@H](C)O)C(C)C)C(C)C [Melittin, reference compound]	–	–	–	–	–	–	lysis percentage ([1]; 5 μg/ml peptide): 50%; lysis percentage ([1]; 50 μg/ml peptide): 100%; lysis percentage ([1]; 400 μg/ml peptide): 100%
KFKRWLA-NH2 [Pem-1001 L, Lys Phe Lys Arg Trp Leu Ala]	50	50	50	–	–	–	P50 (concentration of peptide leading to 50% of the maximum increase in NPN uptake) [2]: 6.25 µg/mL
KKFRRFVRFIAKK-NH2 [Pem-2253 L, Lys Lys Phe Arg Arg Phe Val Arg Phe Ile Ala Lys Lys]	12.5	12.5	12.5	–	–	–	–
KKWRAWLKWLAKK-NH2 [Pem-2251 L, Lys Lys Trp Arg Ala Trp Leu Lys Trp Leu Ala Lys Lys]	6.25	1.565	12.5	–	–	–	MIC (Bacillus pumilus): 6.25 µg/mL; MIC (Staphylococcus aureus): 3.125 µg/mL; MIC (Bacillus substilis): 3.125 µg/mL; MIC [5]: 3.125 µg/mL; MIC (Bacillus cereus): 6.25 µg/mL; MIC (E. coli): 3.125 µg/mL; MIC (Pseudomonas aeruginosa): 6.25 µg/mL; P50 (concentration of peptide leading to 50% of the maximum increase in NPN uptake) [2]: 6.25 µg/mL
KKWRKWLKWLAKK-NH2 [Pem-2254 L, Lys Lys Trp Arg Lys Trp Leu Lys Trp Leu Ala Lys Lys]	1.565	1.565	–	–	–	–	MIC (Bacillus pumilus): 3.125 µg/mL; MIC (Staphylococcus aureus): 1.565 µg/mL; MIC (Bacillus substilis): 3.125 µg/mL; MIC [5]: 1.565 µg/mL; MIC (Bacillus cereus): 6.25 µg/mL; MIC (E. coli): 1.565 µg/mL; MIC (Pseudomonas aeruginosa): 3.125 µg/mL; lysis percentage ([1]; 5 μg/ml peptide): 0.45%; lysis percentage ([1]; 50 μg/ml peptide): 1.52%; lysis percentage ([1]; 400 μg/ml peptide): 16.35%
KKWRKWLRAIAKK-NH2 [Pem-2252 L, Lys Lys Trp Arg Lys Trp Leu Arg Ala Ile Ala Lys Lys]	25	25	25	–	–	–	lysis percentage ([1]; 5 μg/ml peptide): 3.12%; lysis percentage ([1]; 5 μg/ml peptide, listed as Pem-2252): 0.45%; lysis percentage ([1]; 50 μg/ml peptide): 9.82%; lysis percentage ([1]; 50 μg/ml peptide, listed as Pem-2252): 1.52%; lysis percentage ([1]; 400 μg/ml peptide): 37.66%; lysis percentage ([1]; 400 μg/ml peptide, listed as Pem-2252): 16.35%; hemolytic activity against hRBC, in words ([1]; compared with other antimicrobial peptides): less hemolytic against hRBC than other antimicrobial peptides
KWKIWLK-NH2 [Pem-1003 L, Lys Trp Lys Ile Trp Leu Lys]	12.5	25	12.5	–	–	–	–
Lys Lys Phe Arg Arg Phe Val Arg Phe Ile Ala Lys Lys (KKFRRFVRFIAKK; not fully specified (bridges); printed as Lys Lys Phe Arg Arg Phe Val Arg Phe Ile Ala Lys Lys; also: cyclic topology, ring type not given here) [Pem-2253 C]	–	–	–	50	50	50	–
Lys Lys Trp Arg Ala Trp Leu Lys Trp Leu Ala Lys Lys (KKWRAWLKWLAKK; not fully specified (bridges); printed as Lys Lys Trp Arg Ala Trp Leu Lys Trp Leu Ala Lys Lys; also: cyclic topology, ring type not given here) [Pem-2251 C]	–	–	–	25	25	50	–
Lys Lys Trp Arg Lys Trp Leu Arg Ala Ile Ala Lys Lys (KKWRKWLRAIAKK; not fully specified (bridges); printed as Lys Lys Trp Arg Lys Trp Leu Arg Ala Ile Ala Lys Lys; also: cyclic topology, ring type not given here) [Pem-2252 C]	–	–	–	>50	>50	>50	–
Lys Lys Trp Arg Lys Trp Leu Lys Trp Leu Ala Lys Lys (KKWRKWLKWLAKK; not fully specified (bridges); printed as Lys Lys Trp Arg Lys Trp Leu Lys Trp Leu Ala Lys Lys; also: cyclic topology, ring type not given here) [Pem-2254 C]	–	–	–	25	25	50	–
Lys Phe Arg Ala Trp Val Arg (KFRAWVR; not fully specified (bridges); printed as Lys Phe Arg Ala Trp Val Arg; also: cyclic topology, ring type not given here) [Pem-1002 C]	–	–	–	>50	>50	>50	–
Lys Phe Lys Arg Trp Leu Ala (KFKRWLA; not fully specified (bridges); printed as Lys Phe Lys Arg Trp Leu Ala; also: cyclic topology, ring type not given here) [Pem-1001 C]	–	–	–	>50	>50	>50	–
